Laboratory results reported in patent US8299048B2, “Hexahydrocyclopentyl[f]indazole sulfonamides and derivatives thereof as selective glucocorticoid receptor modulators” (Merck Sharp & Dohme Corp., priority 2008, dated 2012).

Target: T1, human GR (Homo sapiens, UniProt P04150)
T1 sequence (P04150 1-777): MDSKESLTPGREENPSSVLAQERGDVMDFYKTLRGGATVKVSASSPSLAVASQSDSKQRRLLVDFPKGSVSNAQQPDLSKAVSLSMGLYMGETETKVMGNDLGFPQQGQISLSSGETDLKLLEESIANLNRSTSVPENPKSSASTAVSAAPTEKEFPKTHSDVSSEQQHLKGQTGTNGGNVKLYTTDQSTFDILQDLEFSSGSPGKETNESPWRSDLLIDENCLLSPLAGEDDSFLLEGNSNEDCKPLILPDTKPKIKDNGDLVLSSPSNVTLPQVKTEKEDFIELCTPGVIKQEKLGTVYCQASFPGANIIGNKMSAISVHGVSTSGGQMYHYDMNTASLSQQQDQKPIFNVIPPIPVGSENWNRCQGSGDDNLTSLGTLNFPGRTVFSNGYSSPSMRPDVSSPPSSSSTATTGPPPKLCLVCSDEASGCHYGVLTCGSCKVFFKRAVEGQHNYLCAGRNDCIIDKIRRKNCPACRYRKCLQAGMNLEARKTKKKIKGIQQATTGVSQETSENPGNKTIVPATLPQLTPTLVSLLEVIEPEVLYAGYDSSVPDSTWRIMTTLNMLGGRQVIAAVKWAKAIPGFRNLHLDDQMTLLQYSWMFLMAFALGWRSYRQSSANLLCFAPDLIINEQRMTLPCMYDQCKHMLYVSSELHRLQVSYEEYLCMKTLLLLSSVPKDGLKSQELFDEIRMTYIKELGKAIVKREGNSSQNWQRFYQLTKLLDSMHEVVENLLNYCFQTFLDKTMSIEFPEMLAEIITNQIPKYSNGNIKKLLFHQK
Experiment: Trans-Activation Modulation of Glucocorticoid Receptor (GRAMMER), MMTV-LUC reporter, agonist mode
Format: cell-based
Design: endogenous in cells
Settings: for Emax: A549, A549 cells, maximum activity, read-out: Transactivation A549 Cells GRAMMER Emax; for EC50: A549 cells, inflection point, read-out: Transactivation A549 Cells GRAMMER IP
In short: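 Readout is luciferase from a modified MMTV LTR promoter after 24 h compound exposure alongside 10 nM dexamethasone (100% activity reference), DMSO ≤1%.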

Row | Structure (SMILES) | Emax [%] | EC50 [µM]
1 | COc1ccccc1CCN(C[C@H]1CCC2=Cc3c(cnn3-c3ccccc3)C[C@@]21C)S(=O)(=O)CC(F)(F)F [Example 139, 2,2,2-trifluoro-N-[2-(2-methoxyphenyl)ethyl]-N-{[(4αR,5S)-4α-methyl-1-phenyl-1,4,4α,5,6,7-hexahydrocyclopenta[f]indazol-5-yl]methyl}ethanesulfonamide] | 70.7 | 0.262
2 | C[C@]12Cc3cnn(-c4ccc(F)cc4)c3C=C1CC[C@@H]2CN(CC1CCCO1)S(=O)(=O)Cc1cccc(C(F)(F)F)c1 (stereo partly drawn) [Example 110, N-{[(4αR,5S)-1-(4-fluorophenyl)-4α-methyl-1,4,4α,5,6,7-hexahydrocyclopenta[f]indazol-5-yl]methyl}-N-(tetrahydrofuran-2-ylmethyl)-1-[3-(trifluoromethyl)phenyl]methanesulfonamide] | 4.9 | 1.1
3 | Cn1cc(S(=O)(=O)N(CC(O)C(F)F)C[C@H]2CCC3=Cc4c(cnn4-c4ccc(F)cc4)C[C@@]32C)c(C(F)(F)F)n1 (stereo partly drawn) [Example 156, N-(3,3-difluoro-2-hydroxypropyl)-N-{[(4αR,5S)-1-(4-fluorophenyl)-4α-methyl-1,4,4α,5,6,7-hexahydrocyclopenta[f]indazol-5-yl]methyl}-1-methyl-3-(trifluoromethyl)-1H-pyrazole-4-sulfonamide] | 4.5 | 0.193
4 | Cn1cc(S(=O)(=O)N(CC(O)c2ccccn2)C[C@H]2CCC3=Cc4c(cnn4-c4ccc(F)cc4)C[C@@]32C)c(C(F)(F)F)n1 (stereo partly drawn) [Example 157, N-{[(4αR,5S)-1-(4-fluorophenyl)-4α-methyl-1,4,4α,5,6,7-hexahydrocyclopenta[f]indazol-5-yl]methyl}-N-(2-hydroxy-2-pyridin-2-ylethyl)-1-methyl-3-(trifluoromethyl)-1H-pyrazole-4-sulfonamide] | 63.6 | 0.124
5 | COC(=O)c1cc(Cl)ccc1CCN(C[C@H]1CCC2=Cc3c(cnn3-c3ccc(F)cc3)C[C@@]21C)S(=O)(=O)CC(F)(F)F [Example 160, methyl 5-chloro-2-(2-{{[(4αR,5S)-1-(4-fluorophenyl)-4α-methyl-1,4,4α,5,6,7-hexahydrocyclopenta[f]indazol-5-yl]methyl}[(2,2,2-trifluoroethyl)sulfonyl]amino}ethyl)benzoate] | 4.3 | 0.547
6 | C[C@H](O)CN(C[C@H]1CCC2=Cc3c(cnn3-c3ccc(F)cc3)C[C@@]21C)S(=O)(=O)c1ccc(F)c(Cl)c1 [Example 112, 3-chloro-4-fluoro-N-{[(4αR,5S)-1-(4-fluorophenyl)-4α-methyl-1,4,4α,5,6,7-hexahydrocyclopenta[f]indazol-5-yl]methyl}-N-[(2S)-2-hydroxypropyl]benzenesulfonamide] | 33.4 | 0.423
7 | COCCN(C[C@H]1CCC2=Cc3c(cnn3-c3ccc(F)cc3)C[C@@]21C)S(=O)(=O)CCN1C(=O)c2ccccc2C1=O [Example 118, 2-(1,3-dioxo-1,3-dihydro-2H-isoindol-2-yl)-N-{[(4αR,5S)-1-(4-fluorophenyl)-4α-methyl-1,4,4α,5,6,7-hexahydrocyclopenta[f]indazol-5-yl]methyl}-N-(2-methoxyethyl)ethanesulfonamide] | 8.7 | 0.853
8 | CC(C1CCC2=Cc3c(cnn3-c3ccc(F)cc3)C[C@@]21C)N(CC1CC1)S(=O)(=O)CC(F)(F)F (stereo partly drawn) [Example 109, N-(cyclopropylmethyl)-2,2,2-trifluoro-N-{1-[(4αR)-1-(4-fluorophenyl)-4α-methyl-1,4,4α,5,6,7-hexahydrocyclopenta[f]indazol-5-yl]ethyl}ethanesulfonamide] | 54.1 | 0.209
9 | C[C@]12Cc3cnn(-c4ccc(F)cc4)c3C=C1CC[C@@H]2CN(CCC(N)C(F)(F)F)S(=O)(=O)CC(F)(F)F (stereo partly drawn) [Example 147, N-(3-amino-4,4,4-trifluorobutyl)-2,2,2-trifluoro-N-{[(4aR,5S)-1-(4-fluorophenyl)-4α-methyl-1,4,4α,5,6,7-hexahydrocyclopenta[f]indazol-5-yl]methyl}ethanesulfonamide] | 78.1 | 0.475
10 | C[C@]12Cc3cnn(-c4ccc(F)cc4)c3C=C1CC[C@@H]2CN(CC(O)C(F)F)S(=O)(=O)CC(F)(F)F (stereo partly drawn) [Example 133, N-(3,3-difluoro-2-hydroxypropyl)-2,2,2-trifluoro-N-{[(4αR,5S)-1-(4-fluorophenyl)-4α-methyl-1,4,4α,5,6,7-hexahydrocyclopenta[f]indazol-5-yl]methyl}ethanesulfonamide] | 73.4 | 0.0675
11 | C[C@]12Cc3cnn(-c4ccc(F)cc4)c3C=C1CC[C@@H]2CN(Cc1cccnn1)S(=O)(=O)CC(F)(F)F [Example 132, 2,2,2-trifluoro-N-{[(4αR,5S)-1-(4-fluorophenyl)-4α-methyl-1,4,4α,5,6,7-hexahydrocyclopenta[f]indazol-5-yl]methyl}-N-(pyridazin-3-ylmethyl)ethanesulfonamide] | 23.2 | 0.421

More lines, now with the values ahead:

Row | Emax [%] | EC50 [µM] | Structure (SMILES)
12 | 74.9 | 0.15 | C[C@]12Cc3cnn(-c4ccc(F)cc4)c3C=C1CC[C@@H]2CN(CC(O)C(F)(F)F)S(=O)(=O)Cc1ccccc1C(N)=O (stereo partly drawn) [Example 167, 2-({[{[(4αR,5S)-1-(4-fluorophenyl)-4α-methyl-1,4,4α,5,6,7-hexahydrocyclopenta[f]indazol-5-yl]methyl}(3,3,3-trifluoro-2-hydroxypropyl)amino]sulfonyl}methyl) benzamide]
13 | 58.3 | 1.08 | C[C@]12Cc3cnn(-c4ccc(F)cc4)c3C=C1CC[C@@H]2CN(CC(O)C(F)(F)F)S(=O)(=O)Cc1ccccc1C(=O)O (stereo partly drawn) [Example 164, 2-({[{[(4αR,5S)-1-(4-fluorophenyl)-4α-methyl-1,4,4α,5,6,7-hexahydrocyclopenta[f]indazol-5-yl]methyl}(3,3,3-trifluoro-2-hydroxypropyl)amino]sulfonyl}methyl)benzoic acid]
14 | 56.4 | 0.303 | C[C@]12Cc3cnn(-c4ccc(F)cc4)c3C=C1CC[C@@H]2CN(CCc1ccccn1)S(=O)(=O)Cc1ccncc1 [Example 166, N-{[(4αR,5S)-1-(4-fluorophenyl)-4α-methyl-1,4,4α,5,6,7-hexahydrocyclopenta[f]indazol-5-yl]methyl}-1-pyridin-4-yl-N-(2-pyridin-2-ylethyl)methanesulfonamide]
15 | 9.2 | 0.258 | CCCCCCCCS(=O)(=O)N(CCc1ccccc1F)C[C@H]1CCC2=Cc3c(cnn3-c3ccc(F)cc3)C[C@@]21C [Example 104, N-[2-(2-fluorophenyl)ethyl]-N-{[(4αR,5S)-1-(4-fluorophenyl)-4α-methyl-1,4,4α,5,6,7-hexahydrocyclopenta[f]indazol-5-yl]methyl}octane-1-sulfonamide]
16 | 73.5 | 0.676 | C[C@]12Cc3cnn(-c4ccc(F)cc4)c3C=C1CC[C@@H]2CN(CCc1ccccc1O)S(=O)(=O)c1ccccc1F [Example 116, 2-fluoro-N-{[(4αR,5S)-1-(4-fluorophenyl)-4α-methyl-1,4,4α,5,6,7-hexahydrocyclopenta[f]indazol-5-yl]methyl}-N-[2-(2-hydroxyphenyl)ethyl]benzenesulfonamide]
17 | 15.2 | 0.315 | C[C@]12Cc3cnn(-c4ccc(F)cc4)c3C=C1CC[C@@H]2CN(CCc1ccccn1)S(=O)(=O)Cc1ccccc1C(F)(F)F [Example 153, N-{[(4αR,5S)-1-(4-fluorophenyl)-4α-methyl-1,4,4α,5,6,7-hexahydrocyclopenta[f]indazol-5-yl]methyl}-N-(2-pyridin-2-ylethyl)-1-[2-(trifluoromethyl)phenyl]methanesulfonamide]
18 | 62.1 | 0.236 | C[C@]12Cc3cnn(-c4ccc(F)cc4)c3C=C1CC[C@@H]2CN(CCc1ccccc1F)S(=O)(=O)c1ccccc1C(F)(F)F [Example 99, N-[2-(2-fluorophenyl)ethyl]-N-{[(4αR,5S)-1-(4-fluorophenyl)-4α-methyl-1,4,4α,5,6,7-hexahydrocyclopenta[f]indazol-5-yl]methyl}-2-(trifluoromethyl)benzenesulfonamide]
19 | 45.6 | 0.346 | Cn1cc(S(=O)(=O)N(CCc2ccccn2)C[C@H]2CCC3=Cc4c(cnn4-c4ccc(F)cc4)C[C@@]32C)c(C(F)(F)F)n1 [Example 150, N-{[(4αR,5S)-1-(4-fluorophenyl)-4α-methyl-1,4,4α,5,6,7-hexahydrocyclopenta[f]indazol-5-yl]methyl}-1-methyl-N-(2-pyridin-2-ylethyl)-3-(trifluoromethyl)-1H-pyrazole-4-sulfonamide]
20 | 73 | 0.395 | C[C@]12Cc3cnn(-c4ccc(F)cc4)c3C=C1CC[C@@H]2CN(CCc1ccccc1F)S(=O)(=O)Cc1ccccc1Cl [Example 107, 1-(2-chlorophenyl)-N-[2-(2-fluorophenyl)ethyl]-N-{[(4αR,5S)-1-(4-fluorophenyl)-4α-methyl-1,4,4α,5,6,7-hexahydrocyclopenta[f]indazol-5-yl]methyl}methanesulfonamide]
